Values joined by “and” are separate entries in the source; they are usually repeats but may differ in a detail not shown here. Identical values can stand only once. Like-named read-outs stand apart in the source and are kept apart here. Positions of bridges follow the written chain, without caps; N, C: chain ends. Residues, ends and D or L forms follow the SMILES beside them.
Columns and labels:
hypercalcemic rats = test: Efficacy of calcitonins against hypercalcemia (vitamin D3 hypercalcemic rats); assay type: in vivo, rat; details: 4 IU/kg subcutaneously, FIG. 1
Protocol: Vitamin D3 (5 mg/kg) was administered orally to 5-wk old SD male rats for 4 consecutive days to construct experimental models of hypercalcemic rats. […] Blood was sampled at given time intervals and the concentration of calcium in plasma was measured.

conscious dog = test: Effects of calcitonins on gastrointestinal motility (IMC) in conscious dog; assay type: in vivo, beagle dog; details: for effect on the IMC / gastrointestinal motility: i.v., conscious dog, summary of Table 10
Excerpt: A healthy beagle dog weighing about 10 kg was anesthetized with an i.v. injection of pentobarbital sodium and the abdominal cavity was opened under aseptic conditions.
Extraluminal force transducers were sutured onto the serosa of the gastric antrum stomach, duodenum and jejunum to measure circular muscle contraction, as reported previously (Itoh et al. Gastroenterol Jpn. 12, 275 1977).
The lead wires of these transducers were out of the abdominal cavity and then brought out through a skin incision made between the scapulae.
After the abdominal surgery, a 5-cm longitudinal skin incision was made in the right Frontal neck to expose the external jugular vein.
After the operation, a jacket protector was placed on the dog to protect the lead wires and the Silastic tube.
The dog was housed in individual experimental cage, and given commercial dog food at 5:00 P.M. and water was given freely.
The gastrointestinal motor activity was recorded on a thermal pen writing recorder (WR-3101, Graphtic, Tokyo, Japan) by connecting the lead wires of the transducers to the connecting cables from the amplifiers (UG-5, Nihon Kohden, Tokyo, Japan).
About two weeks postoperation, gastrointestinal contractile activity could be divided into two main patterns of activity, the interdigestive and digestive states.
In the interdigestive state, IMC (interdigestive migrating motor complex) were seen to occur at regular intervals of 100 to 120 min. in the gastric antrum, and migrated through the duodenum and jejunum at a constant velocity.
In all animals, feeding disrupted the regular IMC pattern. Experiments were carried out during interdigestive state. The drug was dissolved into 0.9% saline and administered through the indwelling Silastic tube for about 10 seconds in a volume of 0.3 ml/kg.
15 Min after the end of the IMC in the gastric antrum, which were subsequently flushed in with 0.9% saline.
The time until the next IMC is occurred from administration of the drug was measured, and used as a index for inhibitory activity of the drug on gastrointestinal motility.

[1] = system: anti-salmon calcitonin human sera; test: Cross reaction between anti-salmon calcitonin human antibody and hybrid calcitonin (competition with 125I labelled salmon calcitonin); assay type: binding; details: anti-salmon calcitonin human sera Nos. 1-4, FIG. 5
Protocol: Salmon calcitonin was synthesized by an ordinary procedure of solid-phase synthesis. Salmon calcitonin labelled with ^125 I was prepared by the Tejedor method (Tejedor, F. and Ballesta, J. P. G.; Analytical Biochemistry, 127, 143-149 (1982)).
Four types of human sera that had been verified to contain antibody after administration of salmon calcitonin were furnished from Dr. Frederick R. Singer (CEDERS-SINAI MEDICAL CENTER). The antibody titres of those sera against salmon calcitonin were as follows:
A 0.1M borate buffer solution (pH 8.0) containing 0.5% BSA, 0.9% NaCl, 0.1% NaN3 and 0.05% Tween 20 was used as a reaction buffer. This reaction buffer, anti-salmon calcitonin human serum (diluted with the reaction buffer to a final dilution of 100-6,400) and a solution of labelled calcitonin were charged into an assist tube (Spitz type of Salschted Inc. measuring 12×75 mm) in the respective volumes shown below, stirred thoroughly, and left to stand overnight at room temperature.
The reaction solution was mixed well with 500 μl of 0.2% BGG (bovine γ-globulin, Sigma), further mixed with 1 ml of 25% PEG #6000, stirred thoroughly and thereafter left to stand at room temperature for 15 min. […] After removing the supernatant by aspiration, the radioactivity level of the residue was measured with a gamma-counter. […]

Female beagles [2] = details: dog, in vivo
Protocol: (§1) One hour later, enteric aspirin tablets (containing 200 mg of the active ingredient) were administered orally together with 25 ml of water. Thereafter, blood samples were taken from the other cephalic vein at given time intervals, and the plasma obtained in the usual manner was stored at -20° C. until measurement.
(§2) As it passes through the intestinal wall, most of the ingested aspirin is metabolized and enters the blood stream as salicylic acid. […] Ethanol (200 μl) was added to 50 μl of plasma and the mixture was centrifuged at 10,000 rpm×1 min, with the resulting supernatant being subjected to HPLC.
(§3) The difference between the time from calcitonin administration to the absorption of aspirin and the time from physiological saline administration to the absorption of aspirin was calculated for each animal to determine the delay in gastric emptying time.

Rats = test: Effects of calcitonins on the inhibition of body weight gain and appetite; details: intramuscular, 12.5, 50 and 200 IU/kg, 24 h later
Protocol: Each of the calcitonins was administered in three different doses: 12.5 IU/kg, 50 IU/kg and 200 IU/kg. For the body weight changes, the measured values were averaged for 5 rats, and for the food consumption, the measured values for 5 rats were added together.

Female beagles [3] = test: Effects of calcitonins on gastric emptying time (enteric aspirin absorption); details: for Delay time (difference in time to aspirin absorption between calcitonin and physiological saline) / Lag time (time from aspirin administration to its absorption): individual animals
Protocol: as §1, §2, §3

| Structure (SMILES) | effect on elevated blood (plasma) calcium concentration (hypercalcemic rats) | delay of the occurrence of the next IMC (conscious dog; dose of 3 μg/kg i.v.) | effect on the IMC / gastrointestinal motility (conscious dog) | dose at which competition with 125I labelled salmon calcitonin started [1] | action in delaying the gastric emptying time (Female beagles [2]) | body weight change (inhibition of body weight gain) (Rats; FIG. 3) | food consumption (appetite) (Rats; FIG. 4) | action in delaying the gastric emptying time (Female beagles [3]; beagles, summary of Table 9) | Delay time (difference in time to aspirin absorption between calcitonin and physiological saline) (Female beagles [3]; dose 6 μg (1.2 IU)/kg i.v.) | Lag time (time from aspirin administration to its absorption) (Female beagles [3]; dose 6 μg (1.2 IU)/kg i.v.) | Delay time (difference in time to aspirin absorption between calcitonin and physiological saline) (Female beagles [3]; dose 100 μg (20.0 IU)/kg i.v.) | Lag time (time from aspirin administration to its absorption) (Female beagles [3]; dose 100 μg (20.0 IU)/kg i.v.) |
| --- | --- | --- | --- | --- | --- | --- | --- | --- | --- | --- | --- | --- |
| CC(C)C[C@H](NC(=O)[C@H](CCCCN)NC(=O)CNC(=O)[C@H](CC(C)C)NC(=O)[C@@H](NC(=O)[C@@H]1CSSC[C@H](N)C(=O)N[C@@H](CO)C(=O)N[C@@H](CC(N)=O)C(=O)N[C@@H](CC(C)C)C(=O)N[C@@H](CO)C(=O)N[C@@H]([C@@H](C)O)C(=O)N1)C(C)C)C(=O)N[C@@H](CO)C(=O)N[C@@H](CCC(N)=O)C(=O)N[C@@H](CCC(=O)O)C(=O)N[C@@H](CC(C)C)C(=O)N[C@@H](Cc1c[nH]cn1)C(=O)N[C@@H](CCCCN)C(=O)N[C@@H](CC(C)C)C(=O)N[C@@H](CCC(N)=O)C(=O)N[C@H](C(=O)N[C@@H](Cc1ccc(O)cc1)C(=O)N1CCC[C@H]1C(=O)N[C@@H](CCCNC(=N)N)C(=O)N[C@H](C(=O)N[C@@H](CC(N)=O)C(=O)N[C@H](C(=O)NCC(=O)N[C@@H](CO)C(=O)NCC(=O)N[C@H](C(=O)N1CCC[C@H]1C(N)=O)[C@@H](C)O)[C@@H](C)O)[C@@H](C)O)[C@@H](C)O [salmon calcitonin] | caused rapid reduction in the elevated blood calcium concentration | 3 days | does-dependently inhibited the occurrence of the next IMC | at least 1 ng/ml | very strong action in delaying the gastric emptying time | – | – | – | – | – | – | – |
| CSCC[C@H](NC(=O)[C@@H]1CSSC[C@H](N)C(=O)NCC(=O)N[C@@H](CC(N)=O)C(=O)N[C@@H](CC(C)C)C(=O)N[C@@H](CO)C(=O)N[C@@H]([C@@H](C)O)C(=O)N1)C(=O)N[C@@H](CC(C)C)C(=O)NCC(=O)N[C@H](C(=O)N[C@@H](Cc1ccc(O)cc1)C(=O)N[C@H](C(=O)N[C@@H](CCC(N)=O)C(=O)N[C@@H](CC(=O)O)C(=O)N[C@@H](Cc1ccccc1)C(=O)N[C@@H](Cc1c[nH]cn1)C(=O)N[C@@H](CCCCN)C(=O)N[C@@H](CC(C)C)C(=O)N[C@@H](CCC(N)=O)C(=O)N[C@H](C(=O)N[C@@H](Cc1ccc(O)cc1)C(=O)N1CCC[C@H]1C(=O)N[C@@H](CCCNC(=N)N)C(=O)N[C@H](C(=O)N[C@@H](CC(N)=O)C(=O)N[C@H](C(=O)NCC(=O)N[C@@H](CO)C(=O)NCC(=O)N[C@H](C(=O)N1CCC[C@H]1C(N)=O)[C@@H](C)O)[C@@H](C)O)[C@@H](C)O)[C@@H](C)O)[C@@H](C)O)[C@@H](C)O [Example 1, (1-16) human/(17-32) salmon hybrid calcitonin] (H-CGNLSTCMLGTYTQDFHKLQTYPRTNTGSGTP-NH2; disulfide 1-7) | – | – | – | – | more similar to human calcitonin than salmon calcitonin in delaying to gastric emptying time | – | – | – | – | – | – | – |
| CC[C@H](C)[C@H](NC(=O)[C@H](C)NC(=O)[C@@H](NC(=O)[C@H](CCC(N)=O)NC(=O)[C@@H]1CCCN1C(=O)[C@H](Cc1ccccc1)NC(=O)[C@@H](NC(=O)[C@H](Cc1c[nH]cn1)NC(=O)[C@H](Cc1ccccc1)NC(=O)[C@H](CCCCN)NC(=O)[C@H](CC(N)=O)NC(=O)[C@H](Cc1ccccc1)NC(=O)[C@H](CC(=O)O)NC(=O)[C@H](CCC(N)=O)NC(=O)[C@@H](NC(=O)[C@H](Cc1ccc(O)cc1)NC(=O)[C@@H](NC(=O)CNC(=O)[C@H](CC(C)C)NC(=O)[C@H](CCSC)NC(=O)[C@@H]1CSSC[C@H](N)C(=O)NCC(=O)N[C@@H](CC(N)=O)C(=O)N[C@@H](CC(C)C)C(=O)N[C@@H](CO)C(=O)N[C@@H]([C@@H](C)O)C(=O)N1)[C@@H](C)O)[C@@H](C)O)[C@@H](C)O)[C@@H](C)O)C(=O)NCC(=O)N[C@H](C(=O)NCC(=O)N[C@@H](C)C(=O)N1CCC[C@H]1C(N)=O)C(C)C [human calcitonin] | caused rapid reduction in the elevated blood calcium concentration | – | only a slight effect on the IMC | – | – | no differences | no differences | weak in such action | 1.3 h and 2.6 h and 2.9 h | 3.0 h and 3.9 h and 4.0 h | 4.4 h and 5.0 h | 5.0 h and 6.9 h |

Source: patent US5831000A, “Hybrid calcitonin” (Chugai Seiyaku Kabushiki Kaisha, priority 1990, dated 1998)
